System: bacteria or mold
Experiment: retention of antimicrobial activity on a substrate
Conditions: no test method described

Structure (SMILES): Cc1cc(O)cc(C)c1Cl [PCMX, 4-chloro-3,5-dimethyl phenol]
- duration of antimicrobial effect on a substrate: hours
